According to patent US10172821B2, “Histone deacetylase inhibitors” (President & Fellows of Harvard College, priority 2006, dated 2019):

Assays:
[1] = system: Transformed lymphocytes derived from involved skin of IL-7 transgenic mice (lymphoproliferative disease similar to human cutaneous T-cell lymphoma); experiment: Topical treatment of mice with lymphoproliferative skin disease (CTCL model), histopathologic examination; assay type: in vivo; conditions: daily, fourteen days of therapy, versus vehicle control, FIG. 14
Source text: FIG. 14. Interleukin-7 is a growth factor for T-cell development, in particular the gamma-delta subset. Transgenic mice overexpressing IL-7 in keratinocytes were developed by the laboratories of Thomas Kupper and Benjamin Rich, using a tissue-specific keratin-14 promoter element. These mice have been reported to develop a characteristic lymphoproliferative skin disease grossly and histologically similar to human cutaneous T-cell lymphoma (CTCL). Transformed lymphocytes derived from involved skin were passaged ex vivo and injected into syngeneic (non-transgenic) mice. After fourteen days, these mice develop a homogeneous lymphoproliferative disease. Two cohorts of five mice were included in a prospective study of topical, daily suberoyl hydroxamic acid phenyl ester (SAHP, also known as SHAPE) versus vehicle control. After fourteen days of therapy, mice were sacrificed and the treated region was dissected for histopathologic examination.

[2] = Degradation of SAHP in serum; assay type: in vitro ADME
Description: In less than 15 minutes, SAHP is completely degraded.
In less than 2 minutes, SAHP is completely degraded into phenol and the corresponding carboxylic acid.

[3] = system: acetylated histones (AcH3K18); experiment: Pharmacodynamic effect by immunohistochemical staining for acetylated histones; assay type: in vivo; conditions: SAHP-treated mice compared to vehicle treated controls; FIG. 15

time until SAHP is completely degraded in serum ([2]; FIG. 6): less than 15 minutes
time until SAHP is completely degraded into phenol and the corresponding carboxylic acid ([2]; more detailed study, FIG. 7): less than 2 minutes
Structure (SMILES): O=C(CCCCCCC(=O)Oc1ccccc1)NO [SAHP, suberoyl hydroxamic acid phenyl ester]
lymphomatous infiltration within the treated window (hematoxylin-eosin staining) [1]: marked reduction in lymphomatous infiltration
AcH3K18 staining (histone hyperacetylation) in treated skin [3]: hyperacetylated histone staining at the margin of compound treatment, with absent nuclear staining in the region of drug response
